Experimental data from US8980933B2, “Combretastatin analogs for use in the treatment of cancer” (Universitat Bayreuth, priority 2010, dated 2015).
Values after ≈ are worked out from the molar mass of the structure shown.

Columns and labels:
[1] = tested on: A2780 ovarian carcinoma xenografts; assay: A2780 ovarian carcinoma xenograft model; format: in vivo, mouse
[2] = tested on: H12.1 germ cell tumor, 1411HP germ cell tumor, A2780 ovarian carcinoma, HT29 colon carcinoma, DLD1 colon carcinoma, HCT8 colon carcinoma; assay: SRB-cytotoxicity assay in a panel of tumor cell lines; format: cell-based, human; conditions: H12.1, 1411HP
Protocol: The cytotoxic activity of 5b was established by standard colorimetric tests (SRB- and MTT-assays) against various tumor cell lines of different entities. For the SRB cytotoxicity assay, dose-response curves of the testicular germ cell tumor cell lines exposed to drug concentrations of 0.001-10 μM were established using the sulforhodamine-B (SRB) microcuiture colorimetric assay (Papazisis et al. Optimization of the sulforhodamine B colorimetric assay. J. Immunol. Methods 1997, 208, 151-158) and performed as described in: Müller et al. Failure of activation of caspase-9 induces a higher threshold for apoptosis and cisplatin resistance in testicular cancer. Cancer Res. 2003, 63, 513-521. Briefly, cells were seeded into 96-well plates on day 0, at cell densities previously determined to ensure exponential cell growth during the period of the experiment. On day 1, cells were treated with the drugs dissolved in medium to give the appropriate concentrations for indicated times and the percentage of surviving cells relative to untreated controls was determined on day 5.
The compounds 5b, 6b, 5f and 6f as well as the reference compound 25f (Wang et al.) were furthermore subjected to an SRB-cytotoxicity assay in a panel of tumor cell lines (H12.1 germ cell tumor, 1411HP germ cell tumor, A2780 ovarian carcinoma, HT29 colon carcinoma, DLD1 colon carcinoma, HCT8 colon carcinoma).

[3] = tested on: 1411HP germ cell tumor xenografts; assay: Nude mouse xenograft model of resistant 1411HP; format: in vivo; conditions: 1411HP xenograft model
Protocol: In vivo antitumor activity and tolerability of compounds 5b and 6b of the invention were studied in a nude mouse xenograft model of the resistant germ cell tumor cell line 1411HP employing Athymic Nude-Fox n1 nu/nu mice (Harlan und Winkelmann, Borchen, Germany).
The tests were carried out as follows. The mice were kept under pathogen-free conditions, fed on an autoclaved standard diet and given free access to sterilized water. Each of five mice were administered a 150 μL phosphate buffered saline suspension of 10 million 1411HP cells into the left flank to generate subcutaneous xenograft tumors. After 4 weeks one group of two mice bearing 1411HP xenografts with a volume of ca. 1 cm^3 were injected i.p. with a single dose of 30 mg/kg body weight of 5b or 6b, respectively. Two mice in the second group with xenografts of a volume of ca. 2.5 cm^3 were injected i.p. with 20 mg/kg body weight of 5b on two consecutive days. Tumor volumes were calculated by caliper measurement using the formula a^2×b×0.5 with a being the short and b the long dimension. Body weight was assessed twice weekly and daily while under therapy.

[4] = Toxicity / tolerability in mice; format: in vivo
Protocol: Prior to testing compound 5b, healthy animals of this type were treated with an ascending range of doses of 5b in order to establish a toxicity profile. […] Suitable dosages were then administered in further tests in a nude mouse xenograft model of a pair of germ cell tumor cell lines, the chemoresistant cell line 1411HP and the chemosensitive cell line H12.1. These cell lines retain their individual in vitro chemosensitivities to cisplatin when grown as xenograft tumors and so may serve as a model of the clinical situation of resistance to chemotherapy (Mueller et al. Cancer Res. 2003; Mueller et al. Tumor Biol. 2006).
Compounds 5b, 6b and 6f were also tested in terms of feasibility of oral administration. Mice received a single dose of 40 mg/kg body weight of 5b, 6b or 6f, respectively. […] Then compounds 6b or 6f were given peroral as dual-dose application on two consecutive days in accordance to the i.p. treatment scheme used for the regression trials but with a 2-fold higher dose of 2×40 mg/kg body weight.

[5] = tested on: NHDF fibroblasts; assay: Cytotoxicity, NHDF; format: cell-based; conditions: Homo sapiens; NHDF fibroblasts (non-malign)
Protocol: (§1) The compounds 9a, 9b and 9c, which are exemplary compounds of formula (III) according to the present invention, as well as the reference compound 25f were tested in a similar manner.

[6] = tested on: PtK-2 opossum kidney cells; assay: Cytotoxicity, PtK-2; format: cell-based; conditions: PtK2; PtK-2 opossum kidney cells (non-malign)
Protocol: as §1

[7] = tested on: L929 fibroblasts; assay: Cytotoxicity, L929; format: cell-based; conditions: Mus musculus, read-out: IC50 L-929
Protocol: as §1

[8] = tested on: KB-3-1 cervix carcinoma; assay: Cytotoxicity, KB-3-1; format: cell-based; conditions: Homo sapiens
Protocol: as §1

[9] = tested on: HUVEC cells; assay: Minimal inhibitory concentration in HUVEC; format: cell-based
Protocol: as §1

Compound | vascular disrupting effect [1] | in vitro cytotoxicity compared to 25f [2] | vascular disrupting effect [3] | toxicity after oral administration ([4]; peroral dual-dose 2×40 mg/kg on two consecutive days) | toxicity after oral administration ([4]; single dose 40 mg/kg oral) | toxicity after oral administration ([4]; single dose 60 mg/kg peroral) | IC50 [5] | IC50 [6] | IC50 [7] | IC50 [8] | minimal inhibitory concentration (MIC) HUVEC [9]
CCOc1ccc(-c2c(-c3cc(Cl)c(OC)c(OC)c3)ncn2C)cc1N [compound 5f, 1-methyl-5-(3-amino-4-ethoxyphenyl)-4-(3-chloro-4,5-dimethoxyphenyl)-imidazole] | vascular disrupting activity | further improvement of cytotoxicity | vascular disrupting activity |  |  |  |  |  |  |  | 
CCOc1ccc(-c2c(-c3cc(Br)c(OC)c(OC)c3)ncn2C)cc1N [compound 6f, 1-methyl-5-(3-amino-4-ethoxyphenyl)-4-(3-bromo-4,5-dimethoxyphenyl)-imidazole] | vascular disrupting activity | further improvement of cytotoxicity | vascular disrupting activity | no signs of toxicity were observed | No signs of toxicity were observed | tolerated symptom-free |  |  |  |  | 
COc1ccc(-c2ncn(C)c2-c2cc(Br)c(OC)c(OC)c2)cc1F [9a, 1-Methyl-5-(3-bromo-4,5-dimethoxyphenyl)-4-(3-fluoro-4-methoxyphenyl)imidazole] |  |  |  |  |  |  | 175 nM | 437 nM | 24 nM | 4.4 nM | 0.109 µM (≈ 0.0459 µg/mL)
